Experimental findings from patent US20050222108A1, “Solvent-based sterilisation of pharmaceuticals” (priority 2002, published 2005) are described below.

A short description of data set [1]: Solubility by w/w % assay of saturated solutions in various solvents. The class given is physicochemical. As to conditions: saturated solution, 21-23° C. On the procedure: The solubility of fluticasone propionate was measured by w/w % assay of saturated solutions in a variety of solvents at 21-23° C.
The format of data set [2] is physicochemical. As to conditions: for Area %: 100° C. under nitrogen, in water. On the procedure: A sample from the above example was heated to 100° C. under nitrogen for 30 hours to examine the stability of the drug under extended distillation times required on scale-up. No new impurities were evident in the area % chromatogram and the assay of the fluticasone propionate appears unaffected by extended periods at 100° C. in water.

A short description of data set [3]: Stability to distillation at atmospheric pressure (HPLC area % profile). Format: physicochemical. As to conditions: Example 5. On the procedure: In this example, a development of example 4, the distillation was performed at atmospheric pressure and the first distillation was halted when the pot temperature reached 99° C. […] A further 25 volumes of water were added and the distillation continued until 25 volumes of distillate had been removed.

Like-named read-outs stand apart in the source and are kept apart here.

Take `CCC(=O)O[C@]1(C(=O)SCF)[C@H](C)C[C@H]2[C@@H]3C[C@H](F)C4=CC(=O)C=C[C@]4(C)[C@@]3(F)[C@@H](O)C[C@@]21C` [fluticasone propionate]: the “w/w % solubility of fluticasone propionate” value in data set [1] (Acetone) is on record as 5.7 w/w %; in data set [1] (Ethanol) it was 0.4 w/w %; in data set [1] (Ethyl acetate), 0.2 w/w %; in data set [1] (Isopropanol), 0.3 w/w %; in data set [1] (tBME) it was 1.2 w/w %. In addition, the “Time chemically stable to distillation at 100° C.” value in data set [2] is “at least 30 hours”. In data set [2] (100° C. in water, up to 30 hours, no new impurities in area % chromatogram), the “Assay of fluticasone propionate after extended periods at 100° C. in water” value was “unaffected”. In addition, the Area % in data set [2] (Time 0 hr) was 99.2%; in data set [2] (Time 6 hr), 99.4%; in data set [2] (Time 24 hr) it was 99.5%; in data set [2] (Time 30 hr) it was 99.4%. Also, the “Stability to distillation at 100° C. (HPLC area % profile, starting solid to final aqueous slurry)” value in data set [3] was “stable”.
